The results in this text go back to ChEMBL document CHEMBL3414448, “Advances in the discovery of novel antimicrobials targeting the assembly of bacterial cell division protein FtsZ” (Eur J Med Chem, 2015).

In series [1] the target is T1, Cell division protein FtsZ (Escherichia coli K-12, UniProt P0A9A6).
T1 sequence (P0A9A6 whole entry): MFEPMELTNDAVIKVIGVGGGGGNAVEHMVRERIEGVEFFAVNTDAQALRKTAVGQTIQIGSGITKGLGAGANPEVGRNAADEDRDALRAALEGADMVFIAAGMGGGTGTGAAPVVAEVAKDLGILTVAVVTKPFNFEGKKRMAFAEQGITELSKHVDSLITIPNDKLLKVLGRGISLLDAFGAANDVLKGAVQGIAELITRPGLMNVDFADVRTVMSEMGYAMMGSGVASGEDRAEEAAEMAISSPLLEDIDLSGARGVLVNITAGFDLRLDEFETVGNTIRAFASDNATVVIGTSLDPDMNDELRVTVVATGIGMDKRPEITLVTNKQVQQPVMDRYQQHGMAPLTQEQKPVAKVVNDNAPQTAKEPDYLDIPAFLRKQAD
As to the kind of experiment: Inhibition of Escherichia coli FtsZ GTPase activity.

The target of series [2] is T1, Cell division protein FtsZ. As to the kind of experiment: Inhibition of Escherichia coli FtsZ polymerization.
Series [3] concerns Staphylococcus aureus. Kind of series: Antimicrobial activity against Staphylococcus aureus. It is filed as functional.
The subject of series [4] is Enterococcus faecalis. Kind of series: Antimicrobial activity against Enterococcus faecalis. The format is functional.
The subject of series [5] is Enterococcus faecium. As to the kind of experiment: Antimicrobial activity against Enterococcus faecium. It is filed as functional.
Series [6] concerns Bacillus subtilis. As to the kind of experiment: Antimicrobial activity against Bacillus subtilis 168. The format is functional.
In series [7] the test system is Staphylococcus aureus. As to the kind of experiment: Antimicrobial activity against methicillin-sensitive Staphylococcus aureus ATCC 29213. It is filed as functional.
Series [8] has as its system Enterococcus faecium. Kind of series: Antimicrobial activity against ampicillin-resistant and levofloxacin-resistant Enterococcus faecium 12160560. It is filed as functional.
For series [9], the system named is Enterococcus faecalis. As to the kind of experiment: Antimicrobial activity against Enterococcus faecalis ATCC 29212. The format is functional.
Series [10] has as its system Streptococcus pneumoniae. Kind of series: Antimicrobial activity against Streptococcus pneumoniae ATCC 49619. It is filed as functional.
Series [11] has as its system Acinetobacter baumannii. Kind of series: Antimicrobial activity against multidrug-resistant Acinetobacter baumannii 12159796. The format is functional.
The subject of series [12] is Pseudomonas aeruginosa. As to the kind of experiment: Antimicrobial activity against Pseudomonas aeruginosa ATCC 27853. The format is functional.
For series [13], the system named is Enterobacter cloacae. Kind of series: Antimicrobial activity against multidrug-resistant Enterobacter cloacae 12161389. It is filed as functional.
The subject of series [14] is Escherichia coli. Kind of series: Antimicrobial activity against Escherichia coli ATCC 35218. It is filed as functional.
Series [15] relates to Klebsiella pneumoniae. As to the kind of experiment: Antimicrobial activity against ESBL producing Klebsiella pneumoniae ATCC 700603. The format is functional.
Series [16] has as its system Escherichia coli. As to the kind of experiment: Antimicrobial activity against Escherichia coli. It is filed as functional.
The nature of series [17]: Inhibition of FtsZ (unknown origin) assessed as reduction in enzyme GTPase activity.
The nature of series [18]: Half life in staphylococcal growth media.
A short description of series [19]: Half life in 100% filtered mouse serum. The format is ADME.
A short description of series [20]: Inhibition of FtsZ (unknown origin) assessed as reduction in enzyme assembly.
For series [21], the system named is Bacillus subtilis. Kind of series: Antimicrobial activity against Bacillus subtilis relative to control. It is filed as functional.
Series [22] deals with Escherichia coli. Kind of series: Antimicrobial activity against Escherichia coli relative to control. It is filed as functional.
Series [23] has as its system Staphylococcus aureus. Kind of series: Antimicrobial activity against methicillin-resistant Staphylococcus aureus. It is filed as functional.
Series [24] relates to Bacillus subtilis. As to the kind of experiment: Antimicrobial activity against Bacillus subtilis. It is filed as functional.
Series [25] deals with T2, Cell division protein FtsZ (Bacillus subtilis (strain 168), UniProt P17865).
T2 sequence (P17865 whole entry): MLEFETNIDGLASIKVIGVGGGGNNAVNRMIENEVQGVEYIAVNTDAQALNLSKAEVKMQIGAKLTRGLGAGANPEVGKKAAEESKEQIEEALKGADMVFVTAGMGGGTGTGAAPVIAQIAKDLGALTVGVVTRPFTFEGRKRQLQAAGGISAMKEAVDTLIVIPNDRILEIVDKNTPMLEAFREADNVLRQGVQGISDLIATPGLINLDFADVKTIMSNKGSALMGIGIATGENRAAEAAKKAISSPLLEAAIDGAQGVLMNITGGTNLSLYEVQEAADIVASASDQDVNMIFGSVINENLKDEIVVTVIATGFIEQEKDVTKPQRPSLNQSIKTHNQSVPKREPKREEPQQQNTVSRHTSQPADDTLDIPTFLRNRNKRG
As to the kind of experiment: Binding affinity to Bacillus subtilis FtsZ.

Series [26] concerns HeLa. Kind of series: Cytotoxicity against human HeLa cells. The format is cell-based.
Series [27] can be described thus: Selectivity index, ratio of IC50 for human HeLa cells to MIC for Staphylococcus aureus MR12160636.
Series [28] concerns the target T1, Cell division protein FtsZ. As to the kind of experiment: Binding affinity to Escherichia coli FtsZ by fluorescence anisotrophy.
For series [29], the system named is Pseudomonas fluorescens. Kind of series: Antimicrobial activity against Pseudomonas fluorescens. The format is functional.

Values after ≈ are worked out from the molar mass of the structure shown.

For `COC(=O)CC1Cc2cc3cc(OC)c(-c4c(OC)cc5cc6c(c(O)c5c4O)C(=O)OC(CC(=O)OC)C6)c(O)c3c(O)c2C(=O)O1` (stereo unspecified) [VIRIDITOXIN], the IC50 (as a rule, the midpoint of a concentration-inhibition curve) in [1] is 10.6 µM; in [2], 12.4 µM. Further, the values for the MIC in series [3], in [4] and in series [5] were 4 µg/mL (≈ 6.04 µM), 2 µg/mL (≈ 3.02 µM) and 2 µg/mL (≈ 3.02 µM), respectively.

Consider `O=C(Oc1cc(OC(=O)c2cc(O)c(O)c(O)c2)c2ccccc2c1)c1cc(O)c(O)c(O)c1`, for which the MIC – broadly, the lowest concentration that inhibits growth of the organism – in series [6] stood at 64 µg/mL (≈ 138 µM); in [7], 32 µg/mL (≈ 68.9 µM); in series [8], 64 µg/mL (≈ 138 µM); in series [9] it was 64 µg/mL (≈ 138 µM); in [10], 64 µg/mL (≈ 138 µM); in [11] it was 64 µg/mL (≈ 138 µM). For the same compound, the MIC in series [12], in series [13], in series [14] and in series [15] was 128 µg/mL (≈ 276 µM) throughout.

Regarding `CCC(CC)c1cc([C@H]2CN3CC[C@H]2C[C@@H]3CN)nc(-c2ccncc2)n1`, the MIC in series [16] worked out at 18 µg/mL (≈ 49.2 µM); in series [3], 9 µg/mL (≈ 24.6 µM). Besides, the half-maximal inhibitory concentration (IC50) in series [17] turned out to be 37.5 µM.

With `CN1CCC(C(=O)NC(=O)c2c(F)ccc(OCc3nc4cc(Cl)cnc4s3)c2F)CC1`, the half-life (usually the time needed for the level to fall by half in the phase considered) was 8.2 h in series [18] and 3.4 min in [19].

Consider `COc1ccc2cc3[n+](cc2c1OC)CCc1cc2c(cc1-3)OCO2` [BERBERINE], for which the figures for the IC50 in series [20] and in series [17] were 10 µM and 16 µM, respectively.

Regarding `O=C/C=C/c1ccccc1` [CINNAMALDEHYDE], the results for the IC50 in [1] and in [2] were 5.81 µM and 6.86 µM, respectively. The MIC in [21] stood at 500 µg/mL (≈ 3780 µM); in series [22], 1000 µg/mL (≈ 7570 µM); in series [23], 0.25 µg/mL (≈ 1.89 µM); in [24], 0.5 µg/mL (≈ 3.78 µM); in series [16], 1 µg/mL (≈ 7.57 µM).

Turning to `O=C1C[C@@H](c2ccccc2)Oc2c(Cc3ccccc3O)c(O)c(Cc3ccccc3O)c(O)c21` [DICHAMANETIN], in [1], the concentration for half-maximal inhibition (IC50) was 12.5 µM. For the same compound, the MIC in [24] came out at 5.01 µg/mL (≈ 10.7 µM); in series [3], 0.8 µg/mL (≈ 1.71 µM).

Regarding `O=C1NC(=S)S/C1=C/c1ccc(-c2cccc(C(F)(F)F)c2)o1`, the GI50 (in general, the concentration at which growth is held to half of that of the control) in series [24] worked out at 2 µM. Binding in series [25] was put at a Kd of 1.5 µM. Further, the IC50 in [26] stood at 18.1 µM.

Turning to `O=C(Oc1cc(OC(=O)c2cc(O)cc(O)c2)c2ccccc2c1)c1cc(O)c(O)c(O)c1`, the MIC in series [6] was determined as 16 µg/mL (≈ 35.7 µM); in [7], 16 µg/mL (≈ 35.7 µM); in [8], 32 µg/mL (≈ 71.4 µM); in series [9], 32 µg/mL (≈ 71.4 µM); in series [10], 32 µg/mL (≈ 71.4 µM); in series [11], 64 µg/mL (≈ 143 µM). Also, the MIC worked out at 64 µg/mL (≈ 143 µM) in [12], 128 µg/mL (≈ 285 µM) in [13], 128 µg/mL (≈ 285 µM) in series [14] and 128 µg/mL (≈ 285 µM) in [15].

Turning to `O=C(Oc1cc(OC(=O)c2ccc(O)c(Cl)c2)c2ccccc2c1)c1ccc(O)c(Cl)c1`, the Ratio in [27] is 5. In addition, the minimum inhibitory concentration (MIC) in series [6] was found to be 4 µg/mL (≈ 8.52 µM); in [7], 8 µg/mL (≈ 17 µM); in series [8] it was 4 µg/mL (≈ 8.52 µM); in [9], 2 µg/mL (≈ 4.26 µM); in series [10] it was 32 µg/mL (≈ 68.2 µM); in series [11], 32 µg/mL (≈ 68.2 µM). Further, the MIC in series [12] was 64 µg/mL (≈ 136 µM); in [13] it was 128 µg/mL (≈ 273 µM); in series [14], 128 µg/mL (≈ 273 µM); in [15], 128 µg/mL (≈ 273 µM).

On to `N=C(N)c1ccc(-c2cc3ccc(C(=N)N)cc3[nH]2)cc1` [DAPI], for which, in [28], the Kd (as a rule, the concentration at which binding is half-saturated) was 16.6 µM.

As for `COc1c(OC(C)=O)ccc(/C=N/c2c(C(C)C)cccc2C(C)C)c1[N+](=O)[O-]`, the MIC in series [24], in series [16], in series [3] and in series [29] was 6.25 µg/mL (≈ 15.7 µM) throughout.
